Experimental data as given in ChEMBL document CHEMBL1201862, “PubChem BioAssay data set” (2004).
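Compound exposure: 48 hours, 5 concentrations, 96-well plates. GI50: concentration for 50% inhibition of growth.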 Calls of active or inactive are those of the source. Rule as the data show it: active = GI50 up to about 1.1 µM and inactive = higher.

Legend:
Assay in all cases: growth of human tumour cells (NCI), 48 h
[1] = tested on: T47D
[2] = tested on: BT-549
[3] = tested on: RXF 393
[4] = tested on: SW-620
[5] = tested on: RPMI-8226
[6] = tested on: COLO 205
[7] = tested on: HOP-92
[8] = tested on: UO-31
[9] = tested on: UACC-62
[10] = tested on: SNB-75
[11] = tested on: HCT-15
[12] = tested on: DMS-114
[13] = tested on: NCI-H460
[14] = tested on: K562
[15] = tested on: SK-MEL-28
[16] = tested on: KM-20L2
[17] = tested on: MDA-MB-231
[18] = tested on: M19-MEL
[19] = tested on: HOP-62
[20] = tested on: HL-60

Compound	GI50 [1]	GI50 [2]	GI50 [3]	GI50 [4]	GI50 [5]	GI50 [6]	GI50 [7]	GI50 [8]	GI50 [9]	GI50 [10]	GI50 [11] [µM]	GI50 [12]	GI50 [13]	GI50 [14]	GI50 [15]	GI50 [16]	GI50 [17]	GI50 [18]	GI50 [19]	GI50 [20]
Nc1ncnc2c(C3OC(CO)C(O)C3O)c[nH]c12 (configuration not stated)	0.00405 µM (active)	0.0138 µM (active)	0.00301 µM (active)	0.00195 µM (active)	0.00256 µM (active)	0.01 µM (active)	< 0.015 µM (active)	0.00426 µM (active)	0.00718 µM (active)	0.00328 µM (active)	0.00372	0.00421 µM (active)	0.00269 µM (active)	0.00238 µM (active)	< 0.0218 µM (active)	0.00276 µM (active)	0.0078 µM (active)	0.0139 µM (active)	–	–
COc1cc2c(cc1O)[C@H](C)C(c1ccc(OC)c(OC)c1)O2 (some centres not stated)	–	–	11.7 µM (inactive)	4.2 µM (inactive)	8.2 µM (inactive)	20.4 µM (inactive)	10.4 µM (inactive)	5.69 µM (inactive)	3.09 µM (inactive)	1.95 µM (inactive)	3.08	3.56 µM (inactive)	2.13 µM (inactive)	2.98 µM (inactive)	9.75 µM (inactive)	18.8 µM (inactive)	–	4.18 µM (inactive)	9.46 µM (inactive)	3.41 µM (inactive)
C=C1C(=O)C23[C@H](O)C1CC[C@H]2[C@]12COC3(O)[C@@H](O)[C@@H]1C(C)(C)CC[C@@H]2O	–	–	2.57 µM (inactive)	1.84 µM (inactive)	4.08 µM (inactive)	0.452 µM (active)	3.95 µM (inactive)	15.4 µM (inactive)	10.9 µM (inactive)	20.4 µM (inactive)	3.33	7.38 µM (inactive)	16 µM (inactive)	3.09 µM (inactive)	2.72 µM (inactive)	13.7 µM (inactive)	–	12.9 µM (inactive)	20.6 µM (inactive)	4.27 µM (inactive)
OC1C2CCC1C1C3C=CC(C3)C21 (configuration not stated)	–	–	47 µM (inactive)	> 100 µM (inactive)	42.9 µM (inactive)	> 100 µM (inactive)	34.4 µM (inactive)	> 100 µM (inactive)	> 100 µM (inactive)	46.6 µM (inactive)	77.4	59.6 µM (inactive)	> 100 µM (inactive)	70.6 µM (inactive)	> 100 µM (inactive)	77.3 µM (inactive)	–	> 100 µM (inactive)	> 100 µM (inactive)	38.1 µM (inactive)
Clc1ccc(SC(/C=C/NNC2=NN=C(c3ccccc3)C(c3ccccc3)N2)c2ccccc2)cc1 (configuration not stated)	–	–	6.28 µM (inactive)	33.5 µM (inactive)	6.64 µM (inactive)	20.8 µM (inactive)	7.98 µM (inactive)	13.2 µM (inactive)	27.6 µM (inactive)	15.2 µM (inactive)	26.9	18.5 µM (inactive)	26.2 µM (inactive)	18.2 µM (inactive)	20.8 µM (inactive)	19.9 µM (inactive)	–	36.5 µM (inactive)	33 µM (inactive)	14.6 µM (inactive)
O=C(O/N=C1/CCC/C1=C\c1ccccc1)c1ccc([N+](=O)[O-])cc1	–	–	84.7 µM (inactive)	> 100 µM (inactive)	> 100 µM (inactive)	> 100 µM (inactive)	> 100 µM (inactive)	25.3 µM (inactive)	> 100 µM (inactive)	31.6 µM (inactive)	> 100	> 100 µM (inactive)	> 100 µM (inactive)	> 100 µM (inactive)	> 100 µM (inactive)	> 100 µM (inactive)	–	15.5 µM (inactive)	96.6 µM (inactive)	> 100 µM (inactive)
COc1cc(-c2cc(CCC(=O)Nc3ccccc3[N+](=O)[O-])n(-c3ccc([N+](=O)[O-])cc3[N+](=O)[O-])n2)ccc1O	–	–	> 10 µM (inactive)	> 10 µM (inactive)	> 10 µM (inactive)	> 10 µM (inactive)	> 10 µM (inactive)	> 10 µM (inactive)	38.4 µM (inactive)	89.9 µM (inactive)	40.7	> 10 µM (inactive)	> 10 µM (inactive)	82.6 µM (inactive)	> 10 µM (inactive)	> 10 µM (inactive)	–	> 10 µM (inactive)	> 10 µM (inactive)	> 10 µM (inactive)
Cc1nc2ccccc2c(=O)n1/N=C(\N=N\c1ccccc1)c1ccccc1Cl	–	–	21.6 µM (inactive)	> 88.5 µM (inactive)	20.4 µM (inactive)	> 100 µM (inactive)	25 µM (inactive)	29.2 µM (inactive)	54.6 µM (inactive)	23.8 µM (inactive)	48.1	26 µM (inactive)	24 µM (inactive)	30.6 µM (inactive)	79.3 µM (inactive)	65.5 µM (inactive)	–	> 84.5 µM (inactive)	32.1 µM (inactive)	33.3 µM (inactive)
COc1ccc(/C=C\c2cc(OC)c(OC)c(OC)c2)cc1OC(=O)CC(N)C(=O)O (configuration not stated)	< 0.01 µM (active)	0.00646 µM (active)	0.00166 µM (active)	0.00135 µM (active)	0.00148 µM (active)	0.635 µM (active)	0.00052 µM (active)	0.00759 µM (active)	0.00113 µM (active)	0.000459 µM (active)	0.00258	0.00122 µM (active)	0.00219 µM (active)	0.000321 µM (active)	0.000597 µM (active)	3.7 µM (inactive)	0.00119 µM (active)	0.00135 µM (active)	0.00382 µM (active)	0.000899 µM (active)
COC(=O)/C(=C/c1ccc(OC)cc1)c1cc(OC)c(OC)c(OC)c1	7.13 µM (inactive)	34 µM (inactive)	1.24 µM (inactive)	0.643 µM (active)	2.52 µM (inactive)	1.47 µM (inactive)	3.98 µM (inactive)	5.46 µM (inactive)	0.631 µM (active)	1.29 µM (inactive)	0.646	2.96 µM (inactive)	5.11 µM (inactive)	0.366 µM (active)	5.89 µM (inactive)	1.12 µM (inactive)	3.38 µM (inactive)	3.46 µM (inactive)	1.53 µM (inactive)	0.406 µM (active)
